Where two headings read alike, the source gives them in different places.
Columns and labels:
[1] = thermodynamic solubility in formulation vehicles (phosphate buffer pH 7.4 with excipients); assay type: physicochemical; conditions: for solubility at 24 h: pH 7.4, aqueous with cosolvent or surfactant or cyclodextrin, thermodynamic from solid
Description: In view of developing a formulation suitable for parenteral administration, the quantitative solubility of Chemical Formula land the Chemical Formula 2 were determined in phosphate buffer pH 7.4, supplemented with solubility-enhancing excipients. The target concentration is 1-1.3 mg/mL.
Based on the qualitative solubility result determined for the PBS formulation vehicle containing Transcutol (Gattefossé, France) and TPGS (tocopherol polyethylene glycol succinate), the quantitative solubility of the compound of Chemical Formula 1 and the compound of Chemical Formula 2 was determined in those vehicles to assess the maximum solubility in those vehicles. The thermodynamic solubility was then determined in PBS buffer containing Transcutol (50% and 10%) and TPGS (20% and 10%) and also in the formulation vehicles containing PEG 400 (50%, with and without presence of 2% DMSO). Suspensions of the compound of Chemical Formula 1 and the compound of Chemical Formula 2 were prepared in the selected vehicles with a compound of Chemical Formula 1 concentration of about 3.5-5 mg/mL. After incubation for 24 hours at room temperature, the solids and liquid phases were separated. The concentration of API in solution was determined by HPLC analysis. The results can be found in FIG. 6.

[2] = PK parameters after bid (twice a day) administration; assay type: in vivo; conditions: for Cmax1 / Tmax1: after first daily dosing; for Cmax2 / Tmax2: after second daily dosing; for AUC / AUC(0-t): in vivo; for AUC: read-out: AUC(12-24 h)
Source text: FIG. 10 and Table 4 show the PK properties of the compound of Chemical Formula 2 administered twice a day (bid).
FIG. 11 and Table 5 show the PK properties of the compound of Chemical Formula 1 administered twice per day.

[3] = test system: lung cancer cell line EBC-1; test: cancer cell proliferation inhibitory experiment (SRB); assay type: cell-based, human
Description: The following exemplary experimental protocol was performed to test the activity of the maleate salt compounds described herein.
An RPMI 1640 cell culture medium, fetal bovine serum (FBS) and trypsin were purchased from GIBCO Co., Ltd. (Grand Island, N.Y.), and sodium hydrogencarbonate, amphotericin B and gentamycin were used as signamic medical products. In addition, reagents such as sulforhodamine (SRB) B, Trisma Base, and trichloroacetic acid (TCA), which were reagents used in a cytotoxicity measurement experiment, were purchased from Sigma Chemical Co., Ltd. For MTS analysis, a Celltiter 96 Aqueous Non-Radioactive Cell Proliferation Assay product was purchased from Promega Co., Ltd. Further, a T-25 culture container used for cell culture, a 96-well plate and other disposable glass used for cell culture were obtained from Folkon (Lincoln Park, N.J.) products.
A drug used in the experiment was diluted as an experimental medium to a desired concentration in the test, and the final dimethylsulfoxide concentration was 0.5% or less.
Cancer cell lines used in the experiment were human-derived cancer cell lines, and a lung cancer cell line EBC-1. RPMI 1640 medium with 10% fetal bovine serum (FBS) was used and cultured in an incubator of 37° C. and 5% CO2 and subcultured once by 3 to 4 days.
Specifically, after the culture with the compound of the present disclosure was terminated, the culture solution was removed, and a cold TCA solution added to each well. The cells were left at 4° C. for 1 hour to be fixed. The TCA solution was removed, and the cells were dried at room temperature, incubated with a solution obtained by dissolving 0.4% SRB in a 1% acetic acid solution, left at room temperature for 30 minutes, and then stained. Extra SRB which was not bound to the cells was washed with a 1% acetic acid solution, and the SRB was eluted by adding a […] tris buffer solution (trisma base; unbuffered) of pH 10.3 to 10.5 to the stained cells.

[4] = long-term stability study, chemical purity by HPLC; assay type: physicochemical; conditions: for chemical degradation: up to 15 months, in words
Description: (§1) The physical and chemical stability study was performed on the compounds of Chemical Formula 2 and Chemical Formula 1 (for reference purposes). The long-term stability study was conducted at defined temperatures and relative humidity levels (25° C./60% relative humidity (RH) and 40° C./75% RH). At regular intervals, a solid sample was analyzed by XRPD, TGMS and HPLC.
The results of the chemical purity determination for the compounds of Chemical Formula 1 and Chemical Formula 2 after 1-, 3- and 15-month exposure to 25° C./60% RH and 40° C./75% RH is presented in FIGS. 4 and 5.

[5] = PK parameters in plasma after single administration; assay type: in vivo, Wistar rats; conditions: for AUC(0-inf) / AUC(0-t) / Cmax / Tmax: Wistar, rat, plasma
[6] = long-term stability study, water uptake by TGA; assay type: physicochemical
Description: as §1

[7] = dynamic vapor sorption (DVS) analysis of hygroscopicity; assay type: physicochemical; conditions: humidity range below 80%, 25° C., in words
Description: Differential scanning calorimetry (DSC) analysis was performed to confirm the thermal stability of the novel salts provided in the present disclosure, and dynamic vapor sorption (DVS) analysis was performed to confirm the hygroscopicity.
The DVS analysis was performed to confirm the hygroscopicity of the salts by using a DVS-1 device, and was performed at a relative humidity of 40%, 95%, and 0% at 25° C. for 60 minutes.

[8] = pH-dependent solubility study; assay type: physicochemical

- solubility at 24 h ([1]; PBS formulation vehicle with 50% Transcutol, PBS vehicle containing 50% Transcutol, 24 hours at room temperature): > 3500 µg/mL
- solubility at 24 h ([1]; almost all vehicles, except for the vehicle with 10% Transcutol): > 1300 µg/mL
- AUC(0-12 h)/Dose ([2]; 5 mg/kg IV (10 mg/kg/day)): 1060 kg·nM·h/mg
- AUC(12-24 h)/Dose ([2]; 5 mg/kg IV (10 mg/kg/day)): 1470 kg·nM·h/mg
- AUClast/Dose ([2]; 5 mg/kg IV (10 mg/kg/day)): 1298 kg·nM·h/mg
- Cl ([2]; 5 mg/kg IV (10 mg/kg/day)): 0.00086 mg/h/nM/kg
- Vss ([2]; 5 mg/kg IV (10 mg/kg/day)): 0.00782 mg/nM/kg
- Vz ([2]; 5 mg/kg IV (10 mg/kg/day)): 0.00283 mg/nM/kg
- AUC(0-12 h)/Dose ([2]; 5 mg/kg PO (10 mg/kg/day)): 685 kg·nM·h/mg
- AUC(12-24 h)/Dose ([2]; 5 mg/kg PO (10 mg/kg/day)): 798 kg·nM·h/mg
- AUClast/Dose ([2]; 5 mg/kg PO (10 mg/kg/day)): 742 kg·nM·h/mg
- F ([2]; 5 mg/kg PO (10 mg/kg/day)): 57.2%
- Cmax1 ([2]; 5 mg/kg PO (10 mg/kg/day)): 611 nM
- Tmax1 ([2]; 5 mg/kg PO (10 mg/kg/day)): 0.5-3$ h
- Cmax2 ([2]; 5 mg/kg PO (10 mg/kg/day)): 802 nM
- Tmax2 ([2]; 5 mg/kg PO (10 mg/kg/day)): 12.5-13$ h
- AUC(0-12 h)/Dose ([2]; 20 mg/kg PO (40 mg/kg/day)): 612 kg·nM·h/mg
- AUC(12-24 h)/Dose ([2]; 20 mg/kg PO (40 mg/kg/day)): 601 kg·nM·h/mg
- AUClast/Dose ([2]; 20 mg/kg PO (40 mg/kg/day)): 607 kg·nM·h/mg
- F ([2]; 20 mg/kg PO (40 mg/kg/day)): 46.8%
- Cmax1 ([2]; 20 mg/kg PO (40 mg/kg/day)): 1600 nM
- Tmax1 ([2]; 20 mg/kg PO (40 mg/kg/day)): 2-3$ h
- Cmax2 ([2]; 20 mg/kg PO (40 mg/kg/day)): 2120 nM
- Tmax2 ([2]; 20 mg/kg PO (40 mg/kg/day)): 12.5-14$ h
- AUC ([2]; 5 mg/kg IV (10 mg/kg/day)): 7.34 µM·h
- AUC ([2]; 5 mg/kg PO (10 mg/kg/day)): 3.99 µM·h
- AUC ([2]; 20 mg/kg PO (40 mg/kg/day)): 12 µM·h
- AUC(0-t) ([2]; iv, 5 mg/kg, 5 mg/kg IV (10 mg/kg/day), read-out: AUC(0-12 h)): 5.32 µM·h
- AUC(0-t) ([2]; iv, 5 mg/kg, 5 mg/kg IV (10 mg/kg/day), read-out: AUClast): 13 µM·h
- AUC(0-t) ([2]; po, 5 mg/kg, 5 mg/kg PO (10 mg/kg/day), read-out: AUC(0-12 h)): 3.43 µM·h
- AUC(0-t) ([2]; po, 5 mg/kg, 5 mg/kg PO (10 mg/kg/day), read-out: AUClast): 7.42 µM·h
- AUC(0-t) ([2]; po, 20 mg/kg, 20 mg/kg PO (40 mg/kg/day), read-out: AUC(0-12 h)): 12.2 µM·h
- AUC(0-t) ([2]; po, 20 mg/kg, 20 mg/kg PO (40 mg/kg/day), read-out: AUClast): 24.3 µM·h
- GI50 ([3]; Homo sapiens, EBC-1, EBC-1 cell line): 14.2 nM
- chemical purity greater than the free base form ([4]; 15 months at 40° C. and 75% relative humidity): at least 4.7%
- AUClast/Dose ([5]; 5 mg/kg IV): 1630 kg·nM·h/mg
- AUC∞/Dose ([5]; 5 mg/kg IV): 1655 kg·nM·h/mg
- Cl ([5]; 5 mg/kg IV): 0.000606 mg/h/nM/kg
- Vss ([5]; 5 mg/kg IV): 0.00271 mg/nM/kg
- Vz ([5]; 5 mg/kg IV): 0.00259 mg/nM/kg
- AUClast/Dose ([5]; 5 mg/kg PO): 347 kg·nM·h/mg
- AUC∞/Dose ([5]; 5 mg/kg PO): 355 kg·nM·h/mg
- F ([5]; 5 mg/kg PO): 21.4%
- AUClast/Dose ([5]; 20 mg/kg PO): 341 kg·nM·h/mg
- AUC∞/Dose ([5]; 20 mg/kg PO): 346 kg·nM·h/mg
- F ([5]; 20 mg/kg PO): 20.9%
- AUC(0-inf) ([5]; 5 mg/kg IV): 8.27 µM·h
- AUC(0-t) ([5]; 5 mg/kg IV): 8.13 µM·h
- AUC(0-inf) ([5]; 5 mg/kg PO): 1.77 µM·h
- AUC(0-t) ([5]; 5 mg/kg PO): 1.73 µM·h
- Cmax ([5]; 5 mg/kg PO): 246 nM
- Tmax ([5]; 5 mg/kg PO): 2 to 4 h
- AUC(0-inf) ([5]; 20 mg/kg PO): 6.93 µM·h
- AUC(0-t) ([5]; 20 mg/kg PO): 6.82 µM·h
- Cmax ([5]; 20 mg/kg PO): 676 nM
- Tmax ([5]; 20 mg/kg PO): 2 to 4 h
- water content compared to the free base form ([6]; 15 months, 40 degrees centigrade, 75% relative humidity (FIG. 4), in words): nearly four times lower
- water content lower than the free base form ([6]; about 15 months at 40° C. and 75% relative humidity): at least 22%
- water uptake ([6]; incubation for 15 months under the tested conditions, in words): no significant water uptake
- mass loss due to change in humidity (DVS) [7]: very low
- less soluble than the free base form ([8]; gastric pH (FIG. 7)): more than 50%
- less soluble than the free base form ([8]; pH between 1 and 3): more than 75%
- less soluble than the free base form ([8]; pH of about 1.2 in 0.05M gastric media): more than 75%
Compound: CN1CCN(Cc2ccc(-c3cnc(N4CCOC(Cn5nnc6ncc(-c7cnn(C)c7)nc65)C4)nc3)cc2)CC1.O=C(O)/C=C\C(=O)O (stereo not shown) [Chemical Formula 2]
- solubility compared with Chemical Formula 1 ([1]; all the formulation vehicles tested, in words): higher than that of the compound of Chemical Formula 1
- activity in inhibiting cancer cell growth compared to the compound of Chemical Formula 1 ([3]; in words): improved activity in inhibiting cancer cell growth
- chemical degradation ([4]; 25° C./60% RH): did not show significant chemical degradation
- chemical degradation ([4]; 40° C./75% RH): remained chemically stable up to 15 months
